Data as given in PubChem BioAssay (NCI).
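Cultured in 96-well plates, cells were exposed to test compound for 48 hours across five concentrations. GI50 = concentration required for 50% inhibition of growth. TGI denotes the concentration required for complete inhibition of growth.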

Columns and labels:
Experiment in all cases: NCI-60 cell line screen, 48 h
[1] = tested on: SK-MEL-5 melanoma
[2] = tested on: M14 melanoma
[3] = tested on: UACC-62 melanoma
[4] = tested on: T-47D breast
[5] = tested on: SN12C renal
[6] = tested on: HOP-62 NSCLC
[7] = tested on: OVCAR-8 ovarian
[8] = tested on: KM12 colon
[9] = tested on: PC-3 prostate
[10] = tested on: HCT-116 colon
[11] = tested on: RXF 393 renal
[12] = tested on: CCRF-CEM leukemia
[13] = tested on: IGROV1 ovarian
[14] = tested on: UO-31 renal
[15] = tested on: NCI-H460 lung
[16] = tested on: SK-OV-3 ovarian
[17] = tested on: NCI-H23 lung
[18] = tested on: SF-268 CNS
[19] = tested on: EKVX NSCLC
[20] = tested on: COLO 205 colon
[21] = tested on: BT-549 breast
[22] = tested on: UACC-257 melanoma
[23] = tested on: MDA-MB-435
[24] = tested on: K-562 leukemia
[25] = tested on: SF-295 CNS
[26] = tested on: SR leukemia
[27] = tested on: OVCAR-5 ovarian
[28] = tested on: MDA-MB-231 breast
[29] = tested on: HOP-92 NSCLC
[30] = tested on: MOLT-4 leukemia
[31] = tested on: HCC-2998 colon
[32] = tested on: NCI-H522 lung
[33] = tested on: SK-MEL-28 melanoma
[34] = tested on: HL-60(TB) leukemia
[35] = tested on: NCI/ADR-RES ovarian
[36] = tested on: DU-145 prostate
[37] = tested on: SK-MEL-2 melanoma
[38] = tested on: RPMI-8226 leukemia
[39] = tested on: TK-10 renal
[40] = tested on: MALME-3M melanoma
[41] = tested on: SW-620 colon
[42] = tested on: SNB-75 CNS
[43] = tested on: NCI-H226 lung
[44] = tested on: A498 renal
[45] = tested on: OVCAR-4 ovarian
[46] = tested on: ACHN renal
[47] = tested on: HS 578T breast
[48] = tested on: HT29 colon
[49] = tested on: SF-539 CNS
[50] = tested on: 786-0 renal
[51] = tested on: A549 NSCLC
[52] = tested on: OVCAR-3 ovarian
[53] = tested on: HCT-15 colon

Q: With `Clc1ccc2c(NCCNc3nc(Cl)nc4ccccc34)ccnc2c1` as the molecule, how does the GI50 [1] read?
A: 1.76 µM

Q: And the TGI [1]?
A: 3.22 µM

Q: And the GI50 [2]?
A: 1.84 µM

Q: And the TGI [2]?
A: 3.51 µM

Q: What about the GI50 [3] of the same molecule?
A: 1.81 µM

Q: What about the TGI [3] of the same molecule?
A: 3.49 µM

Q: What about the GI50 [4] of the same molecule?
A: 1.39 µM

Q: What about the TGI [4] of the same molecule?
A: 3.34 µM

Q: What about the GI50 [5] of the same molecule?
A: 1.48 µM

Q: And the TGI [5]?
A: 3.2 µM

Q: What about the GI50 [6] of the same molecule?
A: 0.56 µM

Q: And the TGI [6]?
A: 2.09 µM

Q: What about the GI50 [7] of the same molecule?
A: 1.49 µM

Q: What about the TGI [7] of the same molecule?
A: 3.34 µM

Q: And the GI50 [8]?
A: 1.61 µM

Q: And the TGI [8]?
A: 3.17 µM

Q: And the GI50 [9]?
A: 1.6 µM

Q: And the TGI [9]?
A: 3.12 µM

Q: What about the GI50 [10] of the same molecule?
A: 0.218 µM

Q: And the TGI [10]?
A: 0.531 µM

Q: And the GI50 [11]?
A: 1.73 µM

Q: And the TGI [11]?
A: 3.37 µM

Q: And the GI50 [12]?
A: 0.331 µM

Q: And the TGI [12]?
A: 1.04 µM

Q: What about the GI50 [13] of the same molecule?
A: 1.13 µM

Q: And the TGI [13]?
A: 2.7 µM

Q: And the GI50 [14]?
A: 1.5 µM

Q: And the TGI [14]?
A: 2.94 µM

Q: And the GI50 [15]?
A: 0.536 µM

Q: What about the TGI [15] of the same molecule?
A: 1.83 µM

Q: And the GI50 [16]?
A: 1.82 µM

Q: What about the TGI [16] of the same molecule?
A: 3.35 µM

Q: What about the GI50 [17] of the same molecule?
A: 1.83 µM

Q: What about the TGI [17] of the same molecule?
A: 3.7 µM

Q: What about the GI50 [18] of the same molecule?
A: 1.89 µM

Q: What about the TGI [18] of the same molecule?
A: 3.84 µM

Q: And the GI50 [19]?
A: 1.79 µM

Q: And the TGI [19]?
A: 3.56 µM

Q: What about the GI50 [20] of the same molecule?
A: 0.863 µM

Q: And the TGI [20]?
A: 2.32 µM

Q: What about the GI50 [21] of the same molecule?
A: 1.81 µM

Q: And the TGI [21]?
A: 3.72 µM

Q: And the GI50 [22]?
A: 1.89 µM

Q: And the TGI [22]?
A: 3.54 µM

Q: And the GI50 [23]?
A: 1.47 µM

Q: And the TGI [23]?
A: 2.95 µM

Q: And the GI50 [24]?
A: 0.255 µM

Q: What about the TGI [24] of the same molecule?
A: 0.614 µM

Q: And the GI50 [25]?
A: 1.75 µM

Q: And the TGI [25]?
A: 3.26 µM

Q: What about the GI50 [26] of the same molecule?
A: 0.268 µM

Q: What about the TGI [26] of the same molecule?
A: 0.866 µM

Q: What about the GI50 [27] of the same molecule?
A: 1.62 µM

Q: And the TGI [27]?
A: 3.09 µM

Q: What about the GI50 [28] of the same molecule?
A: 0.36 µM

Q: What about the TGI [28] of the same molecule?
A: 1.21 µM

Q: What about the GI50 [29] of the same molecule?
A: 1.74 µM

Q: What about the TGI [29] of the same molecule?
A: 3.4 µM

Q: What about the GI50 [30] of the same molecule?
A: 0.332 µM

Q: What about the TGI [30] of the same molecule?
A: 1.25 µM

Q: And the GI50 [31]?
A: 1.62 µM

Q: What about the TGI [31] of the same molecule?
A: 3.18 µM

Q: What about the GI50 [32] of the same molecule?
A: 1.3 µM

Q: And the TGI [32]?
A: 2.76 µM

Q: And the GI50 [33]?
A: 1.78 µM

Q: And the TGI [33]?
A: 3.4 µM

Q: What about the GI50 [34] of the same molecule?
A: 0.231 µM

Q: What about the TGI [34] of the same molecule?
A: 0.656 µM

Q: And the GI50 [35]?
A: 2.5 µM

Q: And the TGI [35]?
A: 7.24 µM

Q: What about the GI50 [36] of the same molecule?
A: 1.26 µM

Q: And the TGI [36]?
A: 2.59 µM

Q: And the GI50 [37]?
A: 1.87 µM

Q: What about the TGI [37] of the same molecule?
A: 3.52 µM

Q: What about the GI50 [38] of the same molecule?
A: 0.279 µM

Q: What about the TGI [38] of the same molecule?
A: 0.769 µM

Q: What about the GI50 [39] of the same molecule?
A: 1.95 µM

Q: What about the TGI [39] of the same molecule?
A: 3.46 µM

Q: And the GI50 [40]?
A: 1.76 µM

Q: And the TGI [40]?
A: 3.47 µM

Q: And the GI50 [41]?
A: 0.271 µM

Q: What about the TGI [41] of the same molecule?
A: 0.636 µM

Q: What about the GI50 [42] of the same molecule?
A: 1.64 µM

Q: What about the TGI [42] of the same molecule?
A: 3.16 µM

Q: And the GI50 [43]?
A: 1.82 µM

Q: What about the TGI [43] of the same molecule?
A: 3.53 µM

Q: And the GI50 [44]?
A: 1.87 µM

Q: What about the TGI [44] of the same molecule?
A: 3.52 µM

Q: And the GI50 [45]?
A: 0.323 µM

Q: What about the TGI [45] of the same molecule?
A: 1.22 µM

Q: What about the GI50 [46] of the same molecule?
A: 1.61 µM

Q: And the TGI [46]?
A: 3 µM

Q: And the GI50 [47]?
A: 2.26 µM

Q: And the TGI [47]?
A: 4.96 µM

Q: What about the GI50 [48] of the same molecule?
A: 0.193 µM

Q: And the TGI [48]?
A: 0.377 µM

Q: And the GI50 [49]?
A: 1.6 µM

Q: What about the TGI [49] of the same molecule?
A: 3.12 µM

Q: What about the GI50 [50] of the same molecule?
A: 1.08 µM

Q: And the TGI [50]?
A: 2.46 µM

Q: And the GI50 [51]?
A: 1.4 µM

Q: And the TGI [51]?
A: 3.04 µM

Q: What about the GI50 [52] of the same molecule?
A: 1.29 µM

Q: What about the TGI [52] of the same molecule?
A: 2.68 µM

Q: And the GI50 [53]?
A: 1.14 µM

Q: What about the TGI [53] of the same molecule?
A: 2.55 µM
